Results as given in US11214803B2, “Modulators of YAP1 expression” (Ionis Pharmaceuticals, Inc., priority 2019, dated 2022).
Marks after values point to notes of the source that are not given here. Strand notation (5' to 3'): a small letter for the sugar, then the base; units joined by * are phosphorothioate-linked, units joined directly phosphodiester-linked; [ ] holds rarer units or linkages, { } end groups; capitals alone tell only the bases. k = constrained ethyl (cEt); [5mC] = 5-methylcytosine; d = 2'-deoxy (DNA)

System: Yap1 mRNA
Experiment: Antisense inhibition of human Yap1 in A-431 cells by cEt gapmers, single dose (Example 4, RTS4814)
Assay type: cell-based
Method in brief: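 A-431 cells took up 3-10-3 cEt gapmers (16-mer, full phosphorothioate, 5-methylcytosines) by free uptake at 2,000 nM for about 48 h. Yap1 mRNA was quantified by qRT-PCR, normalized to total RNA (RIBOGREEN), and reported as % of untreated control.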

[1] = Table 14, A-431 cells, 5,000 cells per well, free uptake, 2,000 nM, approximately 48 hours, RTS4814, normalized to RIBOGREEN, Yap1 mRNA relative to untreated control, * = targets amplicon region of primer probe set
[2] = Table 16, A-431 cells, 5,000 cells per well, free uptake, 2,000 nM, approximately 48 hours, RTS4814, normalized to RIBOGREEN, Yap1 mRNA relative to untreated control cells
[3] = Yap1 mRNA remaining as percent of untreated control, 3-10-3 cEt gapmers, A-431 cells, Table 36
[4] = Table 15, A-431 cells, 5,000 cells per well, free uptake, 2,000 nM, approximately 48 hours, RTS4814, normalized to RIBOGREEN, Yap1 mRNA relative to untreated control, * = targets amplicon region of primer probe set
[5] = Yap1 mRNA remaining as percent of untreated control, 3-10-3 cEt gapmers, A-431 cells, Table 37
[6] = Table 17, A-431 cells, 5,000 cells per well, free uptake, 2,000 nM, approximately 48 hours, RTS4814, normalized to RIBOGREEN, Yap1 mRNA relative to untreated control cells

Substance: 1075392 (kG*kA*k[5mC]*dG*dG*dG*dT*dG*dA*dA*d[5mC]*d[5mC]*dT*kG*kT*kT; antisense) [Compound 1075392]
- YAP1 (% UTC) [1]: 95 % UTC

Substance: 1075938 (kG*kA*kA*dT*dA*dT*dA*dT*dG*dG*dG*dT*dT*kT*k[5mC]*kA; antisense) [Compound 1075938]
- YAP1 (% UTC) [2]: 55 % UTC

Substance: 1075874 (k[5mC]*kT*kT*dA*dA*d[5mC]*dA*dA*d[5mC]*d[5mC]*d[5mC]*dT*dA*k[5mC]*kG*kA; antisense) [Compound 1075874]
- YAP1 (% UTC) [2]: 113 % UTC

Substance: 1074774 (k[5mC]*kA*kA*dG*dA*dA*dT*dA*d[5mC]*d[5mC]*d[5mC]*dA*dG*kT*kT*kA; antisense) [compound 1074774]
- YAP1 (% UTC) [3]: 16 % UTC

Substance: 1074402 (antisense kT*kT*kA*dT*dG*dG*dA*dA*dA*dT*dT*dT*d[5mC]*k[5mC]*kG*kG) [Compound 1074402]
- YAP1 (% UTC) [2]: 25 % UTC

Substance: 1074913 (antisense k[5mC]*kA*kT*d[5mC]*d[5mC]*d[5mC]*dG*dA*dG*dT*dG*dG*dG*k[5mC]*kT*kA) [Compound 1074913]
- YAP1 (% UTC) [4]: 99 % UTC

Substance: 1076192 (k[5mC]*kT*kA*d[5mC]*dA*dA*d[5mC]*d[5mC]*dT*dG*dG*dA*d[5mC]*kT*kT*kT; antisense) [Compound 1076192]
- YAP1 (% UTC) [1]: 34 % UTC

Substance: 1076354 (kG*kA*kT*dT*dA*dA*dA*d[5mC]*dA*dT*dT*d[5mC]*dG*kG*kA*kT; antisense) [Compound 1076354]
- YAP1 (% UTC) [2]: 13 % UTC

Substance: 1074432 (antisense kG*kT*kT*dA*dA*dA*dA*dT*dG*dA*dT*dT*dG*kG*kT*kG) [Compound 1074432]
- YAP1 (% UTC) [1]: 3* % UTC

Substance: 1075447 (antisense k[5mC]*kA*k[5mC]*dT*dA*dT*dA*dA*dA*dT*d[5mC]*d[5mC]*dT*k[5mC]*kA*kT) [compound 1075447]
- YAP1 (% UTC) [5]: 96 % UTC

Substance: 1076320 (k[5mC]*kA*kT*dT*dA*dA*d[5mC]*d[5mC]*dT*d[5mC]*dA*d[5mC]*d[5mC]*k[5mC]*kA*kT; antisense) [Compound 1076320]
- YAP1 (% UTC) [1]: 52 % UTC

Substance: 1074752 (k[5mC]*kA*kT*dT*dA*dG*dG*dA*dA*d[5mC]*dA*dA*dG*kG*kA*k[5mC]; antisense) [Compound 1074752]
- YAP1 (% UTC) [1]: 10 % UTC

Substance: 1074327 (antisense kT*kA*k[5mC]*dG*d[5mC]*dA*dG*dG*dG*d[5mC]*dT*dA*dA*k[5mC]*kT*k[5mC]) [compound 1074327]
- YAP1 (% UTC) [5]: 39 % UTC

Substance: 1075650 (kA*kT*kA*dT*dT*dA*d[5mC]*dA*dA*dT*d[5mC]*d[5mC]*d[5mC]*kA*kG*k[5mC]; antisense) [Compound 1075650]
- YAP1 (% UTC) [2]: 48 % UTC

Substance: 1074912 (antisense kA*kT*k[5mC]*d[5mC]*d[5mC]*dG*dA*dG*dT*dG*dG*dG*d[5mC]*kT*kA*kA) [Compound 1074912]
- YAP1 (% UTC) [1]: 85 % UTC

Substance: 1074551 (DNA kA*kA*kT*dA*dT*d[5mC]*dT*dA*d[5mC]*d[5mC]*dG*dT*dA*kT*kG*k[5mC]; antisense) [compound 1074551]
- YAP1 (% UTC) [5]: 58 % UTC

Substance: 1076131 (kT*kA*kT*dT*dA*dT*dG*dA*dG*dG*dA*d[5mC]*dT*kG*kA*kT; antisense) [Compound 1076131]
- YAP1 (% UTC) [6]: 23 % UTC

Substance: 1074721 (antisense kG*kG*kA*dA*dG*dA*dT*d[5mC]*dT*d[5mC]*d[5mC]*dA*dT*kA*kT*kT) [Compound 1074721]
- YAP1 (% UTC) [4]: 43 % UTC

Substance: 1075073 (antisense k[5mC]*kA*kT*dA*dA*dA*dA*dG*dT*dT*d[5mC]*d[5mC]*d[5mC]*k[5mC]*kA*kG) [Compound 1075073]
- YAP1 (% UTC) [4]: 51 % UTC

Substance: 1076386 (kA*kG*kT*dT*dA*dT*dA*dA*d[5mC]*dA*dG*dT*dG*kT*kA*kA; antisense) [Compound 1076386]
- YAP1 (% UTC) [2]: 7 % UTC

Substance: 1075136 (antisense k[5mC]*kT*kA*dG*dA*dA*dT*dA*dT*dT*dA*dA*dA*kG*kG*kG) [Compound 1075136]
- YAP1 (% UTC) [1]: 87 % UTC

Substance: 1075586 (kT*kA*kT*dT*dA*dG*d[5mC]*dA*d[5mC]*d[5mC]*dT*dG*dG*kG*kT*kA; antisense) [Compound 1075586]
- YAP1 (% UTC) [2]: 64 % UTC

Substance: 1075459 (antisense kA*kA*k[5mC]*d[5mC]*dA*dA*dG*dG*dA*dT*dA*dG*dT*k[5mC]*kA*kT) [Compound 1075459]
- YAP1 (% UTC) [6]: 37 % UTC

Substance: 1076567 (kG*kA*kT*dT*dA*d[5mC]*dA*dG*dT*dG*dA*d[5mC]*dA*kT*kT*k[5mC]; antisense) [compound 1076567]
- YAP1 (% UTC) [5]: 10 % UTC

Substance: 1075489 (antisense kG*kA*kG*d[5mC]*dA*dA*d[5mC]*dA*dA*d[5mC]*dT*dA*dT*kG*kA*kG) [Compound 1075489]
- YAP1 (% UTC) [4]: 51 % UTC

Substance: 1074435 (kG*kA*k[5mC]*dT*dT*d[5mC]*dT*dA*dA*dG*dT*d[5mC]*dT*kG*kA*kG; antisense) [Compound 1074435]
- YAP1 (% UTC) [6]: 19* % UTC

Substance: 1075139 (antisense k[5mC]*k[5mC]*k[5mC]*dA*dA*dA*dT*dA*dA*dT*dA*dG*dA*kT*kA*k[5mC]) [Compound 1075139]
- YAP1 (% UTC) [6]: 65 % UTC

Substance: 1075329 (kA*kG*kG*dG*dA*dA*dA*dA*d[5mC]*dT*dT*dT*dG*k[5mC]*kA*k[5mC]; antisense) [Compound 1075329]
- YAP1 (% UTC) [4]: 26 % UTC

Substance: 1074358 (antisense kT*k[5mC]*kG*dA*dG*dG*dG*dA*d[5mC]*dA*d[5mC]*dT*dG*kT*kA*kG) [compound 1074358]
- YAP1 (% UTC) [3]: 17 % UTC

Substance: 1074465 (kA*kA*kT*d[5mC]*dT*dA*dT*dA*dT*dT*dA*dG*dA*kG*kT*kA; antisense) [Compound 1074465]
- YAP1 (% UTC) [4]: 44 % UTC

Substance: 1076288 (k[5mC]*kT*kT*dA*dT*dT*dT*dA*dG*d[5mC]*dA*dT*dA*kG*kT*kG; antisense) [Compound 1076288]
- YAP1 (% UTC) [1]: 3 % UTC

Substance: 1074274 (antisense kG*kT*kT*d[5mC]*dT*dT*dA*dT*dG*dG*dT*dT*dT*kA*kT*kA) [Compound 1074274]
- YAP1 (% UTC) [2]: 4 % UTC

Substance: 1075809 (kT*kA*kG*d[5mC]*dA*dA*dT*dA*dG*dA*dG*dT*dA*kA*k[5mC]*k[5mC]; antisense) [Compound 1075809]
- YAP1 (% UTC) [4]: 13 % UTC

Substance: 1075456 (antisense kT*kT*kA*d[5mC]*dG*dA*dA*dA*dT*dG*dT*dT*dT*kA*kG*kT) [Compound 1075456]
- YAP1 (% UTC) [1]: 61 % UTC

Substance: 1074262 (antisense kG*k[5mC]*k[5mC]*dG*dA*dG*dT*dT*d[5mC]*dA*dT*d[5mC]*dA*kT*kA*kT) [compound 1074262]
- YAP1 (% UTC) [3]: 48 % UTC

Substance: 1075777 (kT*kA*kT*dG*dT*dG*dA*dT*dA*dT*dG*dG*dA*kT*kT*k[5mC]; antisense) [Compound 1075777]
- YAP1 (% UTC) [4]: 12 % UTC

Substance: 1076098 (kT*kT*kA*d[5mC]*dA*dA*dT*dA*dA*dT*dA*dA*dA*k[5mC]*kG*kA; antisense) [Compound 1076098]
- YAP1 (% UTC) [2]: 94 % UTC

Substance: 1074646 (antisense kA*kA*kA*dT*dT*dG*dA*dA*dG*dG*dG*d[5mC]*d[5mC]*kA*kA*kA) [compound 1074646]
- YAP1 (% UTC) [3]: 39 % UTC

Substance: 1075618 (kT*kT*kT*dT*dA*dA*dG*dA*dA*d[5mC]*dG*dA*d[5mC]*kA*kT*kA; antisense) [Compound 1075618]
- YAP1 (% UTC) [2]: 69 % UTC

Substance: 1076226 (k[5mC]*kA*kT*dA*dT*dA*dA*dA*d[5mC]*d[5mC]*dT*dT*dG*k[5mC]*kT*kA; antisense) [Compound 1076226]
- YAP1 (% UTC) [2]: 36 % UTC

Substance: 1075009 (antisense kA*kT*kA*dA*dT*d[5mC]*dG*dA*dA*d[5mC]*dA*dT*dT*kG*kT*kG) [Compound 1075009]
- YAP1 (% UTC) [4]: 43 % UTC

Substance: 1076515 (antisense k[5mC]*kT*kG*d[5mC]*dA*dA*dG*dA*dA*dT*dA*d[5mC]*dT*kT*kT*kA) [Compound 1076515]
- YAP1 (% UTC) [6]: 30 % UTC

Substance: 1075872 (k[5mC]*kA*kA*dT*dT*dA*dT*dG*dA*d[5mC]*dA*dA*dA*k[5mC]*kA*kG; antisense) [Compound 1075872]
- YAP1 (% UTC) [1]: 21 % UTC

Substance: 1075202 (antisense kA*kA*kT*dT*dA*dT*dA*dT*dA*dA*dG*dG*d[5mC]*kT*kG*kT) [Compound 1075202]
- YAP1 (% UTC) [2]: 26 % UTC

Substance: 1074295 (antisense kT*kG*kG*dT*dT*dG*dG*dA*dG*dT*dT*dG*d[5mC]*kT*kG*k[5mC]) [compound 1074295]
- YAP1 (% UTC) [5]: 15 % UTC

Substance: 1076352 (kG*kA*kT*dA*dA*d[5mC]*d[5mC]*d[5mC]*dT*dG*dA*dA*dA*k[5mC]*kA*kA; antisense) [Compound 1076352]
- YAP1 (% UTC) [1]: 37 % UTC

Substance: 1074688 (antisense kT*k[5mC]*k[5mC]*d[5mC]*d[5mC]*d[5mC]*dT*dA*dA*dG*d[5mC]*dT*dA*kA*kA*kG) [Compound 1074688]
- YAP1 (% UTC) [1]: 83 % UTC
